Results on 22 compounds are retold here after patent publication US9376424B2, “Methods for treating post traumatic stress disorder” (AZEVAN PHARMACEUTICALS, INC., priority 2010, dated 2016).

In one experiment the target is T1, human V1a receptor (Homo sapiens, UniProt P37288).
T1 construct: host or cells: CHO cells
Description: Human vasopressin V1a receptor binding assay (3H-AVP competition, hV1a cell line). The settings on record: CHO cells expressing human V1a, 1 nM 3H-AVP; for IC50: read-out: V1a Binding Affinity IC50; for Ki: read-out: V1a Ki. The method, then: Human vasopression V1a receptor binding assay. A cell line expressing the human V1a receptor in CHO cells (henceforth referred to as the hV1a cell line) was obtained from Dr. Michael Brownstein, NIMH, Bethesda, Md., USA. The hV1a cDNA sequence is described by Thibonnier et al., Journal of Biological Chemistry, 269, 3304-3310 (1994), and the expression method was the same as described by Morel et al. (1992). The hV1a cell line was grown in alpha-MEM with 10% fetal bovine serum and 250 ug/ml G418 (Gibco, Grand Island, N.Y., USA). For competitive binding assay, hV1a cells were plated into 6-well culture plate at 1:10 dilution from a confluency flask, and maintained in culture for at least two days. Culture medium was then removed, cells were washed with 2 ml binding buffer (25 mM Hepes, 0.25% BSA, 1×DMEM, PH=7.0). To each well, 990 μl binding buffer containing 1 nM 3H-AVP was added, and followed by 10 μl series diluted Example compounds dissolved in DMSO. […] 100 nM cold AVP (Sigma) was used to assess non-specific binding. Cells were incubated for 45 minutes at 37° C., assay mixture was removed and each well was washed three times with PBS (pH=7.4). 1 ml 2% SDS was added per well and plates were let sit for 30 minutes. The whole content in a well was transferred to a scintillation vial. Each well was rinsed with 0.5 ml PBS which was then added to the corresponding vial. Scintillation fluid (Ecoscint, National Diagnostics, Atlanta, Ga.) was then added at 3 ml per vial. Samples were counted in a liquid scintillation counter (Beckman LS3801). IC50 values were calculated by Prism Curve fitting software.
All of the alkanedioic esters and amides exemplified in the foregoing examples dissolved in DMSO were tested in this assay. Binding curves were generated according to methods described by Thibonnier et al. (1994). [^3H]-AVP was added to the hV1a cell cultures followed by 10-fold dilutions of each test compound.

The test system of a further experiment is C57B1/6J males. Kind of experiment: Social Interaction Test after chronic social subjugation. In kind it is in vivo, mouse. The settings on record: for Distance (traveled in the interaction zone, difference score Post-Pretest) / Time (in the interaction zone, difference score Post-Pretest): mice after 10 day defeat, daily i.p. for 28 days, AVN246-HCl 2 mg/kg, chlordiazepoxide 10 mg/kg. The source says:
Mouse Chronic Subordination Model of Depression. Social stress is a factor in the etiology of several psychopathologies, with individuals differing in vulnerability. Adult male mice are subjected to a model of chronic psychosocial stress in which resident/intruder dyads live chronically in sensory contact and physically interact on a daily basis.
Anti-depressant Effect in the Social Interaction Test. […] A rapid subjugation paradigm in mice lead to diminished social interaction behavior, where the dependent measures are distance traveled and time in the Interaction Zone. […] These observations are consistent with the subordination/social interaction model as a rapid behavioral screen for potential antidepressants. Additional details are described in Berton et al. (2006).
Briefly, C57B1/6J males were defeated daily for 10 days by resident, highly aggressive CF-1 males. After 5 minutes of direct exposure, a perforated plastic partition was inserted into the cage that allowed olfactory and visual contact without physical defeat for the remaining 23 hr 55 min each day. The C57 males were exposed to a different resident male in a different cage each day to increase the stress of the procedure (it was observed that all CF-1 males attacked the intruder each day). At the end of the 10 day defeat procedure, the C57 males were tested in an open field apparatus during the dark phase. A dominant male was caged in an area of the open field apparatus termed the “social interaction zone.” Time and distance traveled in the zone were recorded. The C57 males were then divided randomly among the following treatments: AVN246-HCl (2 mg/kg), saline vehicle (0.45%), or chlordiazepoxide (10 mg/kg). Treatments were given daily (i.p.) for 28 days and the animals were retested. Behavioral changes were determined by calculating difference scores (Post-Pretest) and these scores were analyzed.

T1 sequence (P37288 whole entry): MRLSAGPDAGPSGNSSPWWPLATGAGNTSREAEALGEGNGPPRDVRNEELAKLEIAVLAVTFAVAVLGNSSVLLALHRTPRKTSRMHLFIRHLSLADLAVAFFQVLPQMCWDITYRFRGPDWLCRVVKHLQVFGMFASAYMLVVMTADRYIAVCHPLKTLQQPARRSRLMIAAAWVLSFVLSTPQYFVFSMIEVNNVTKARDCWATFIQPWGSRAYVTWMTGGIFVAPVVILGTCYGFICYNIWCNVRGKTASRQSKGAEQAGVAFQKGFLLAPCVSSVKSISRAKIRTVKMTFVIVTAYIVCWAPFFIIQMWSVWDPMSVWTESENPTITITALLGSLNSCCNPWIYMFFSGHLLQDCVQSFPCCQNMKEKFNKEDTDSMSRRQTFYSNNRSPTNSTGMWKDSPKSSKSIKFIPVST

As to `O=C(NC1CCc2ccccc21)C(CCC(=O)N1CCN(C2CCCCC2)CC1)N1C(=O)C(N2C(=O)OCC2c2ccccc2)C1C=Cc1ccccc1` (mixture of isomers) [Example 216], on human V1a receptor, the IC50 (commonly the concentration needed to halve the response being measured) is 1.83 nM and the Ki (usually a measure of affinity in units of concentration, obtained from inhibition or displacement) is 1.12 nM. As for `CC(C(=O)NCc1cccc(C(F)(F)F)c1)(C(=O)N1CCC(N2CCCCC2)CC1)N1C(=O)[C@@H](N2C(=O)OC[C@@H]2c2ccccc2)[C@H]1/C=C/c1ccccc1` (mixture of isomers) [Example 234, (2RS)-[4-(piperidinyl)piperidinylcarbonyl]-2-methyl-2-[3(S)-(4(S)-phenyloxazolidin-2-on-3-yl)-4(R)-(2-styryl)azetidin-2-on-1-yl]acetic acid N-(3-trifluoromethylbenzyl)amide], on human V1a receptor, the 50% inhibitory concentration (IC50) stood at 2.37 nM and the Ki came to 1.45 nM.

As to `CC(NC(=O)C(CC(=O)N1CCC(N2CCCCC2)CC1)N1C(=O)C(N2C(=O)OCC2c2ccccc2)C1C=Cc1ccccc1)c1ccccc1.Cl` (stereo not shown) [AVN246-HCl], in the experiment with C57B1/6J males, the “Distance (traveled in the interaction zone, difference score Post-Pretest)” value came out at 22 ± 6 and the “Time (in the interaction zone, difference score Post-Pretest)” value stood at 35 ± 10. The “effect on deficits in social interaction produced by chronic subordination” value with C57B1/6J males (mice, 28-day treatment regimen) was “significantly increased both distance traveled and time in the interaction zone”.

For `CNC1=Nc2ccc(Cl)cc2C(c2ccccc2)=[N+]([O-])C1` [CDP, chlordiazepoxide], in the experiment with C57B1/6J males, the “Distance (traveled in the interaction zone, difference score Post-Pretest)” value is reported as 1.0 ± 5 and the “Time (in the interaction zone, difference score Post-Pretest)” value is 0.0 ± 5^. Turning to `O=C(NCc1cccc(C(F)(F)F)c1)C(CC(=O)N1CCN(CCN2CCCC2)CC1)N1C(=O)C(N2C(=O)OCC2c2ccccc2)C1C=Cc1ccccc1` (stereo not shown) [Example 78], the IC50 at human V1a receptor was under 100 nM. Turning to `O=C(CCC(C(=O)NCc1cccc(C(F)(F)F)c1)N1C(=O)C(N2C(=O)OCC2c2ccccc2)C1C=Cc1ccccc1)NCCN1CCCCC1` (stereo not shown) [Example 87], on human V1a receptor, the IC50 was 15 nM. For the compound `O=C(NCc1cccc(C(F)(F)F)c1)[C@H](CCC(=O)N1CCC(CN2CCCCC2)CC1)N1C(=O)[C@@H](N2C(=O)OC[C@@H]2c2ccccc2)[C@H]1/C=C/c1ccccc1` [Example 120E], on human V1a receptor, the IC50 is 3.2 nM and the Ki was found to be 1.95 nM. For `O=C(NCc1cccc(C(F)(F)F)c1)[C@H](CCC(=O)N1CCN(C2CCCCC2)CC1)N1C(=O)[C@@H](N2C(=O)OC[C@@H]2c2ccccc2)[C@H]1/C=C/c1ccccc1` [Example 120H] the same measures were 2.75 nM and 1.68 nM. Take `O=C(NCc1cccc(Cl)c1Cl)[C@H](CCC(=O)N1CCN(C2CCCCC2)CC1)N1C(=O)[C@@H](N2C(=O)OC[C@@H]2c2ccccc2)[C@H]1/C=C/c1ccccc1` [Example 176]: at human V1a receptor, the inhibition constant Ki was found to be 0.38 nM. On to `O=C(NCc1cc(C(F)(F)F)ccc1F)[C@H](CCC(=O)N1CCN(C2CCCCC2)CC1)N1C(=O)[C@@H](N2C(=O)OC[C@@H]2c2ccccc2)[C@H]1/C=C/c1ccccc1` [Example 177], for which, at human V1a receptor, the Ki was determined as 0.41 nM. Turning to `O=C(NCc1cc(F)cc(C(F)(F)F)c1)[C@H](CCC(=O)N1CCN(C2CCCCC2)CC1)N1C(=O)[C@@H](N2C(=O)OC[C@@H]2c2ccccc2)[C@H]1/C=C/c1ccccc1` [Example 179], the Ki on human V1a receptor turned out to be 0.51 nM. For `O=C(NCc1cccc(C(F)(F)F)c1F)[C@H](CCC(=O)N1CCN(C2CCCCC2)CC1)N1C(=O)[C@@H](N2C(=O)OC[C@@H]2c2ccccc2)[C@H]1/C=C/c1ccccc1` [Example 180], the Ki at human V1a receptor came to 0.2 nM.

For the compound `O=C(NCc1ccccc1C(F)(F)F)[C@H](CCC(=O)N1CCN(C2CCCCC2)CC1)N1C(=O)[C@@H](N2C(=O)OC[C@@H]2c2ccccc2)[C@H]1/C=C/c1ccccc1` [Example 182], at human V1a receptor, the Ki worked out at 0.93 nM. `O=C(NCc1cc(Cl)cc(Cl)c1)[C@H](CCC(=O)N1CCN(C2CCCCC2)CC1)N1C(=O)[C@@H](N2C(=O)OC[C@@H]2c2ccccc2)[C@H]1/C=C/c1ccccc1` [Example 185]: at human V1a receptor, the IC50 turned out to be 1.27 nM and the Ki turned out to be 0.82 nM.

As for `O=C(NCc1cccc(Cl)c1)[C@H](CCC(=O)N1CCN(C2CCCCC2)CC1)N1C(=O)[C@@H](N2C(=O)OC[C@@H]2c2ccccc2)[C@H]1/C=C/c1ccccc1` [Example 187], at human V1a receptor, the Ki was 0.66 nM. Regarding `O=C(NCc1cc(C(F)(F)F)cc(C(F)(F)F)c1)[C@H](CCC(=O)N1CCN(C2CCCCC2)CC1)N1C(=O)[C@@H](N2C(=O)OC[C@@H]2c2ccccc2)[C@H]1/C=C/c1ccccc1` [Example 188], the Ki on human V1a receptor turned out to be 4.45 nM. As to `CCCCN(Cc1ccccc1)C(=O)[C@H](CCC(=O)N1CCN(C2CCCCC2)CC1)N1C(=O)[C@@H](N2C(=O)OC[C@@H]2c2ccccc2)[C@H]1/C=C/c1ccccc1` [Example 198], the IC50 on human V1a receptor was about 100 nM. Regarding `O=C(C(COCc1ccccc1)N1C(=O)C(N2C(=O)OCC2c2ccccc2)C1C=Cc1ccccc1)N1CCC(CN2CCCCC2)CC1` (stereo not shown) [Example 233A], on human V1a receptor, the Ki turned out to be 11.6 nM.

On to `CN(Cc1cccc(C(F)(F)F)c1)C(=O)[C@@H](CC(=O)N1CCC(N2CCCCC2)CC1)N1C(=O)[C@@H](N2C(=O)OC[C@@H]2c2ccccc2)[C@H]1/C=C/c1cccc(Cl)c1` [Example 247], for which, on human V1a receptor, the half-inhibitory concentration (IC50) was 0.6 nM and the Ki turned out to be 0.39 nM. As for `O=C(N[C@@H]1CCCc2ccccc21)[C@H](CCC(=O)N1CCN(C2CCCCC2)CC1)N1C(=O)[C@@H](N2C(=O)OC[C@@H]2c2ccccc2)[C@H]1/C=C/c1ccco1` [Example 254], on human V1a receptor, the IC50 was found to be 10 nM and the Ki came to 6.2 nM. Turning to `O=C(N[C@@H]1CCCc2ccccc21)[C@H](CCC(=O)N1CCN(C2CCCCC2)CC1)N1C(=O)[C@@H](N2C(=O)OC[C@@H]2c2ccccc2)[C@H]1/C=C/c1cccs1` [Example 255], on human V1a receptor, the IC50 was determined as 1.9 nM and the Ki was 1.2 nM. For `C[C@@H](NC(=O)[C@@H](CC(=O)N1CCC(N2CCCCC2)CC1)N1C(=O)[C@@H](N2C(=O)OC[C@@H]2c2cccc(Cl)c2)[C@H]1/C=C/c1ccccc1)c1ccccc1` [Example 256] the same measures were 2.8 nM and 1.7 nM.
